# Data published in US9260760B2, “Method for determining complete response to anticancer therapy” (Board of Regents, The University of Texas System, priority 2012, dated 2016).
# Values joined by “and” are separate entries in the source; they are usually repeats but may differ in a detail not shown here. Equal entries are not always repeated.
# Legend:
# [1] = Study 1: treatment-related toxicity of XCEL (CTC version 2.0); assay type: in vivo, human
# Text: The radiation was delivered to the target area using 18 MV photons with 3-D conformal planning technique. The dose of radiation was either 35-40 Gy (n=18) or >45 Gy (n=15) with dose radiation missing in one patient. […] Celecoxib was continued with capecitabine to prevent HFS and to improve survival.
# All patients were subjected to routine clinical examinations, laboratory analyses, and computed tomography. Patients were seen weekly during radiotherapy if treated on site or every 6-9 weeks with physical examinations, laboratory tests, and computed tomography. Treatment-related toxicity was graded using the National Institutes of Health's Common Toxicities Criteria (CTC) version 2.0. Tumor responses were evaluated using RECIST criteria. […] Overall response rate was defined as the sum of the complete and partial response rates and the tumor control rate was defined as the sum of overall response rates with stable disease rates. The date of death was ascertained through the cancer registry or through a search of patients' social security numbers in the Social Security Death Index (ssdi.genealogy.rootsweb.com).
# [2] = system: metastatic colorectal cancer; assay: Study 2: complete responders to XCEL; CR duration, PFS, OS, relapse; assay type: in vivo, human
# Text: This retrospective study was approved by the institutional review board of The University of Texas M. D. Anderson Cancer Center. […] All patients were subjected to routine clinical examinations, laboratory analyses, and computed tomography before receiving XCEL described previously. All patient data were to be independently audited and radiographic images depicting CR were reviewed and agreed upon by two independent radiologists. All 19 patients had pathological confirmation of metastatic cancer ( ). Treatment-related toxicity was graded using the National Institutes of Health's Common Terminology Criteria for Adverse Events, version 3.0. Tumor responses were evaluated using RECIST criteria with complete response defined as complete radiographic disappearance of measurable or evaluable disease and normalization of tumor marker. The death date was ascertained by searching (ssdi.genealogy.rootsweb.com) using social security numbers. The cutoff point for collection of survival was October 2005. Continuous variables were summarized using the mean (±standard deviation) or the median (range). Categorical variables were summarized in frequency tables. Comparisons of important subgroups for these variables were made using the chi-square test or Fisher's exact test, as appropriate. Time to complete response was defined as time to start XCEL therapy to first documented radiographic complete response. Duration of complete response was defined as time to first CR to first recurrence or death. […] Patients were censored at the date of last follow-up if they had not progressed or died. Progression-free and overall survival distributions were summarized using the method of Kaplan and Meier. All response rates, progression-free survival and overall survival were calculated based on the 95% confidence interval (CI). Event chart was created using symbolized events versus time descriptively.
# [3] = Study 2: treatment-related toxicity of XCEL (CTCAE version 3.0); assay type: in vivo, human
# Experimental: This retrospective study was approved by the institutional review board of The University of Texas M. D. Anderson Cancer Center. All sixty-six patients received concurrent capecitabine (Xeloda, Roche Nutley, N.J.) at mean daily dose 1000 mg/m^2/d bid for 14 days every 21 days or Monday-through Friday with radiation with daily celecoxib (CELEBREX®, Pfizer, N.Y.) at 200 mg PO b.i.d. from October 2000 to December 2003.
# All patients were subjected to routine clinical examinations, laboratory analyses, and computed tomography before receiving XCEL described previously. All patient data were to be independently audited and radiographic images depicting CR were reviewed and agreed upon by two independent radiologists. All 19 patients had pathological confirmation of metastatic cancer ( ). Treatment-related toxicity was graded using the National Institutes of Health's Common Terminology Criteria for Adverse Events, version 3.0. Tumor responses were evaluated using RECIST criteria with complete response defined as complete radiographic disappearance of measurable or evaluable disease and normalization of tumor marker. The death date was ascertained by searching (ssdi.genealogy.rootsweb.com) using social security numbers. The cutoff point for collection of survival was October 2005.
# [4] = Study 3: treatment-related toxicity of XCEL (CTCAE version 3.0); details: in vivo
# Text: The institutional review board approved this study. […] All patients had clinical examinations, laboratory and CT scan every 2-3 months.
# The principal investigator and two board-certified radiologists reviewed all the CT scan images. CR was defined according to the RECIST criteria as complete disappearance of measurable or none-measurable disease. Effective CR (eCR) was coined to describe normalization of an anatomical structure (e.g. nodes) that cannot regress completely. Confirmed CR included those patients who had CR by meeting the RECIST criteria or had achieved eCR or pathological CR. Near CR (nCR) were defined as almost complete disappearance (95-99%) of measurable disease on CT scan. Relapse free survival (RFS) was defined as the time from first radiologic CR to first recurrence, progression, or death. […] OS was defined as the time from first radiologic CR to death from any cause. Treatment related toxicity was graded in accordance with the National Cancer Institute Common Toxicity Criteria for Adverse Events, version 3.0.
structure (smiles),measurement,setting,value
Cc1ccc(-c2cc(C(F)(F)F)nn2-c2ccc(S(N)(=O)=O)cc2)cc1 [XCEL],Mild serum creatinine elevations,"[1]; 3 patients after 14 to 32 months of XCEL, reversible upon discontinuation of celecoxib",1.6 to 2.0 mg/dL
same,grade ⅔ HFS,[1]; expanded study with longer follow up,17%
same,"gastrointestinal bleeding, other cardiovascular events, deaths",[1]; in vivo,"No gastrointestinal bleeding, other cardiovascular events, or deaths were noted"
same,median time to HFS peak,[1]; n=12,6.0 months and 6 months
same,median time to HFS onset,[1]; n=17,3.8 months
same,Incidence of grade 1 HFS,[1]; n=65,14%
same,Incidence of grade 2 HFS,[1]; n=65,15%
same,Incidence of grade 3 HFS,[1]; n=65,2%
same,grade ¾ lymphopenia,[1]; n=65,24%
same,lymphopenia of all grades,[1]; n=65,56%
same,relapse,[2]; all (eight relapses),41%
same,carcinoma embryonic antigen level,[2]; all nine patients with elevated CEA,normalization of CEA
same,Five-year OS,[2]; all patients,64%
same,Five-year PFS from XCEL,[2]; all patients,57%
same,median OS,[2]; all patients,54 months
same,CR rate,[2]; first-line responders,90%
same,first-line responders who achieved CR,[2]; in vivo,Eight of nine
same,median time to CR,[2]; in vivo,6.5 months
same,median time to relapse from CR date,[2]; in vivo,14 months
same,Five-year PFS from XCEL,[2]; none-surgical group / unresected CR patients,71% and 70%
same,Five-year OS,[2]; none-surgical patients / unresected CR patients,92%
same,confirmed pathological CR,[2]; one patient,5%
same,median duration of CR,[2]; resected patients,13 months
same,relapse,[2]; resected patients,67%
same,CR rate,"[2]; retroperitoneal nodal metastasis, with radiation",50%
same,patients who discontinued XCEL and remained in CR,"[2]; six of 14 patients, median follow-up of 36 months",43%
same,median duration of CR,[2]; unresected patients,not reached
same,relapse,[2]; unresected patients,29%
same,sustained CR rate,[2]; unresected patients,70%
same,CR site,"[2]; unresected patients, carcinomatosis",21%
same,CR site,"[2]; unresected patients, liver",36%
same,CR site,"[2]; unresected patients, nodal disease",43%
same,mean peak MCV increase before and after XCEL,[3]; compliant patients,10
same,Hematologic toxicities,[3]; in vivo,limited to grade 1 neutropenia and thrombocytopenia
same,grade ½ HFS,[3]; in vivo,28%
same,grade ½ diarrhea,[3]; in vivo,44%
same,grade ¾ lymphopenia,[3]; in vivo,28%
same,Median increase in mean corpuscular volume (MCV) before and after XCEL,[3]; range 5-20,10
same,Median mean corpuscular volume (MCV) increase from baseline after XCEL,[4],11.5
same,cardiovascular toxicities,[4],No cardiovascular toxicities were encountered
